Like-named read-outs stand apart in the source and are kept apart here. Marks after values point to notes of the source that are not given here.
Key:
GLP1R [1] = biological target: T1, GLP1R (Mus musculus, UniProt O35659); assay: melanophore functional bioassay, mouse GLP1R; type: cell-based; settings: melanophores transfected with receptor
T1 construct: expressed in transfected cells; host or cells: melanophores
T1 sequence (O35659 22-463): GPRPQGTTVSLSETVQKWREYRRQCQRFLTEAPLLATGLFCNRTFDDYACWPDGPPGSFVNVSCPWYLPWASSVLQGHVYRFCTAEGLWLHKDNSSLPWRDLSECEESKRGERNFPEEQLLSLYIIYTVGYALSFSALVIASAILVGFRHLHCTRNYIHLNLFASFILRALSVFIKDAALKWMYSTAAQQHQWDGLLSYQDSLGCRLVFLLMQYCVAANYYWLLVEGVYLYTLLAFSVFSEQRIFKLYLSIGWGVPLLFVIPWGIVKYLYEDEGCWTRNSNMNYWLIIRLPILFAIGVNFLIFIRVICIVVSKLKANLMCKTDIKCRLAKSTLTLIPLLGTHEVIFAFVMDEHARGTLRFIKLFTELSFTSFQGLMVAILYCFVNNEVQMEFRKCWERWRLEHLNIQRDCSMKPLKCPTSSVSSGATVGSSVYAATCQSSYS
Description: (§1) The bioassay was performed essentially as described in Jayawickreme et al. (2005) Current Protocols in Pharmacology 12.9.1-12.9.16.

[2] = tested on: diet induced obese (DIO) C57BL/6 mice; assay: Chronic obesity efficacy study in diet induced obese (DIO) mice, peptide-AlbudAbs alone and combined; type: in vivo, mouse
Description: Male diet induced obese (DIO) C57BL/6 mice (Taconic, Hudson, N.Y.) and lean C57BL/6 mice (Taconic, Hudson, N.Y.) were used for all experiments. DIO C57BL/6 mice were group housed and fed a high fat diet (45% fat by kcal) by the vendor from the time of weaning. DIO mice (40-50 g body weight) and age-matched controls were single-housed and maintained at constant temperature (approximately 22° C.) with 12 hr light/dark cycle (lights on from 5:00 AM to 5:00 PM). Mice were given ad libitum access to food (Research Diets D12451, 45% fat for DIO; Lab Diet 5001, 13.5% fat for lean) and water. All animal protocols were approved by the institutional animal care and use committee at GlaxoSmithKline in Research Triangle Park, N.C. The peptide-AlbudAbs were either prepared fresh daily or were prepared once and frozen at −70 deg C. in aliquots. For combination dosing, the drugs were mixed together so that only one injection would be required.
Chronic Obesity Efficacy Studies: DIO C56BL/6 mice and age-matched lean controls were habituated in house for 6 weeks before the start of the study. Animals were dosed every two days between 2-4 pm subcutaneously with a dose volume of 5 ml/kg over a period of 15 days.
A three day vehicle lead in period was used before the start of drug with the first day being vehicle and the second two days being mock injections. Baseline fat mass and lean mass measurements were taken 3-4 days before the start of drug and on day 15 using a QMR instrument (Echo Medical Systems, Houston, Tex.) Body weight measurements were taken every Monday, Wednesday, and Friday starting four days before the first drug dose, with the first measurement being used to randomize the animals. Food hopper weights were measured every weekday starting 4-6 days before the first drug dose, allowing for the calculation of food intake. Animals that created excessive food spillage were removed prior to the beginning of the study. During the study, excess food was removed from the cage and added to the food hopper weights for increased accuracy. Eight to ten animals (n=8-10) were used for the lean control group and eight animals (n=8) were used for all other treatment groups. Sixteen days after the start of drug treatment, animals were fasted for at least 4 hours before collection of whole blood, plasma, and serum samples via terminal cardiac exsanguinations. The whole blood was used to determine the % HbAlc, the plasma was used for a gastrointestinal hormone panel, and the serum was used to access multiple clinical chemistry parameters. Finally, major organs and tissues were collected (heart, kidney, liver, lung, stomach, duodenum, colon, pancreas, brown adipose, white adipose, carcass) on day 16 and fixed in 10% neutral buffered formalin for macroscopic and microscopic histological examination.

GLP1R [3] = biological target: T2, GLP1R (Homo sapiens, UniProt P43220); assay: GLP-1 receptor binding assay (GLP-1R BA), CHO 6CRE GLP1R luciferase reporter cells; type: cell-based; set-up: expressed in transfected cells; host or cells: CHO K1 (CHO 6CRE GLP1R cells)
Description: Fusions were buffer exchanged into 100 mM […], 20 mM citrate pH 6.2. Meanwhile,CHO 6CRE GLP1R cells (CHO K1 cells (obtainable from the American Type Tissue Collection, ATCC) stably transfected with 6 cAMP response element driving a luciferase reporter gene and also with the human GLP-1 receptor) were seeded at 2×10^5cells/mL in suspension media. Suspension culture was maintained for 24 hours. Cells were then diluted into 15 mM HEPES buffer (obtainable from Sigma), containing 2 mM L glutamine (2.5×10^5 cells/ml) and dispensed into 384-well plates containing 10 ul/well of the compound to be assayed. After the addition of assay control, plates were returned to the incubator for 3 h at 37° C. and 5% CO2. […] Plates were placed in the reader (Viewlux, Perkin Elmer) and pre-incubated for 5 minutes prior to reading the […] and plotting of results. Compound was assayed at a range of concentrations in the presence and absence of 10 uM albumin, allowing a dose response curve to be fitted with and without the albumin.

db/db C57BL/6J mice = assay: Chronic diabetes efficacy study in db/db mice, peptide-AlbudAbs alone and combined; type: in vivo, mouse; settings: for decrease in glycosylated HbAlc: baseline vs day 16; for plasma insulin levels: day 16
Description: Male db/db C57BL/6J mice (Jackson Labs, Bar Harbor, Me.) were used for all experiments. The db/db mice (B6.Cg-m +/+ Leprdb/J) and controls were group-housed by the vendor. The db/db mice (10-12 weeks of age), and age-matched controls were shipped to GSK where they were single-housed and maintained at constant temperature (approximately 22° C.) with 12 hr light/dark cycle (lights on from 5:00 AM to 5:00 PM). Mice were given ad libitum access to food (LabDiet 5K67, 16% fat for db/db and their controls) and water. All animal protocols were approved by the institutional animal care and use committee at GlaxoSmithKline in Research Triangle Park, N.C. The peptide-AlbudAbs were prepared fresh daily. The correct dosing concentration of the drug was obtained by diluting the master stock using a citrate vehicle buffer comprised of 100 mM NaCl, 20 mM citric acid, pH 6.2 (filter sterilized). For combination dosing, the drugs were mixed together so that only one injection would be required.
Chronic Diabetes Efficacy Studies: The db/db mice and age-matched lean controls were habituated in house 2 weeks before the start of the study. Animals were dosed every two days between 2-4 pm subcutaneously with a dose volume of 5 ml/kg over a period of 15 days. A three day vehicle lead in period was used before the start of drug with the first day being vehicle and the second two days being mock injections. Baseline fat mass and lean mass measurements were taken 3 days before the start of drug and on day 15 using a QMR instrument (Echo Medical Systems, Houston, Tex.) Body weight measurements were taken every Monday, Wednesday, and Friday starting four days before the first drug dose. […] Food hopper weights were measured every weekday starting 4-6 days before the first drug dose, allowing for the calculation of food intake. Animals that created excessive food spillage were removed prior to the beginning of the study. During the study, excess food was removed from the cage and added to the food hopper weights for increased accuracy. Eight animals (n=8) were used for the lean control group and eight animals (n=8) were used for all other treatment groups. A pair-fed control was included in which the daily food intake for the combination ED80 group was calculated and that amount of food was given to the pair-fed group to eat the next day. Sixteen days after the start of drug treatment, animals were fasted for at least 4 hours before collection of whole blood, plasma, and serum samples via terminal cardiac exsanguinations. The whole blood was used to determine the % HbAlc, the plasma was used for a gastrointestinal hormone panel, and the serum was used to access multiple chemistries. Finally, major organs and tissues were collected (heart, kidney, liver, lung, stomach, duodenum, colon, pancreas, brown adipose, white adipose, carcass) on day 16 and fixed in 10% neutral buffered formalin for macroscopic and microscopic histological examination.

GLP1R [4] = biological target: T2, GLP1R; assay: melanophore functional bioassay, human GLP1R; type: cell-based; set-up: expressed in transfected cells; host or cells: melanophores; settings: melanophores transfected with receptor
Description: as §1

Rat serum albumin (RSA) = Rat serum albumin (RSA) (Rattus norvegicus, UniProt P02770); type: binding
Description: (§2) The analysis was performed using a CM5 Biacore chip (carboxymethylated dextran matrix) that was coated with serum albumin. About 1000 resonance units (RUs) of each serum albumin to be tested (human, rat and mouse serum albumin) was immobilised in acetate buffer pH 5.5. Flow cell 1 of the Biocore AB was an uncoated, blocked negative control, flow cell 2 was coated with Human serum albumin (HSA) (815 RUs) flow cell 3 was coated with Rat serum albumin (RSA)(826RUs) and flow cell 4 was coated with Mouse serum albumin (MSA) (938 RUs). Each fusion molecule tested was expressed in mammalian tissue culture as described in the example above.
(§3) A range of concentrations of the fusion molecule were prepared (in the range 16 nM to 2 μM) by dilution into BIACORE HBS-EP buffer (0.01 M HEPES, pH7.4, 0.15 M NaCl, 3 mM EDTA, 0.005% surfactant P20) and flowed across the BIACORE chip.
(§4) Affinity (KD) was calculated from the BIACORE traces by fitting on-rate and off-rate curves to traces generated by concentrations of dAb in the region of the KD.

[5] = biological target: Mouse serum albumin (MSA) (Mus musculus, UniProt P07724); type: binding
Description: as §2, §3, §4

[6] = biological target: Human serum albumin (HSA) (Homo sapiens, UniProt P02768); type: binding
Description: as §2, §3, §4

[7] = ED80 Doses: PYY-Alb 1.0 mg/kg, Exn-Alb 0.1 mg/kg, Combo
[8] = day 16, ED80 doses: Exendin-4-AlbudAb 0.1 mg/kg, Combo ED80
[9] = read-out: GLP-1R BA (10 uM albumin) EC50 (pM) n = 2, presence of 10 uM albumin
[10] = read-out: GLP-1R BA EC50 (pM) n = 3, absence of albumin
[11] = ED20 doses: PYY-AlbudAb 0.1 mg/kg, Exendin-4-AlbudAb 0.01 mg/kg, Combo ED20

T2 sequence (P43220 24-463): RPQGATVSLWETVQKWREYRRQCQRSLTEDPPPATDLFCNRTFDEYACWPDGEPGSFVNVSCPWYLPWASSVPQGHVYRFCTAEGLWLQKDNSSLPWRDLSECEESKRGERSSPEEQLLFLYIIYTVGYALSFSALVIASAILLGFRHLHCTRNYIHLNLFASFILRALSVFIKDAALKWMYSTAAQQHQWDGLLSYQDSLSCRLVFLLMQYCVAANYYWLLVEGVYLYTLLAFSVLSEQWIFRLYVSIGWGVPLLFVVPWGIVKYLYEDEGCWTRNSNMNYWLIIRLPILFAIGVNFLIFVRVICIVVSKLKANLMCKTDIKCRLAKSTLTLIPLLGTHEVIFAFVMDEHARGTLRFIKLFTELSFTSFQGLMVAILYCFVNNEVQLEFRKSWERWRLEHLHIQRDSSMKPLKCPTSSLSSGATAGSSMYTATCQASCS
Sequence of Mouse serum albumin (MSA) (P07724 25-608): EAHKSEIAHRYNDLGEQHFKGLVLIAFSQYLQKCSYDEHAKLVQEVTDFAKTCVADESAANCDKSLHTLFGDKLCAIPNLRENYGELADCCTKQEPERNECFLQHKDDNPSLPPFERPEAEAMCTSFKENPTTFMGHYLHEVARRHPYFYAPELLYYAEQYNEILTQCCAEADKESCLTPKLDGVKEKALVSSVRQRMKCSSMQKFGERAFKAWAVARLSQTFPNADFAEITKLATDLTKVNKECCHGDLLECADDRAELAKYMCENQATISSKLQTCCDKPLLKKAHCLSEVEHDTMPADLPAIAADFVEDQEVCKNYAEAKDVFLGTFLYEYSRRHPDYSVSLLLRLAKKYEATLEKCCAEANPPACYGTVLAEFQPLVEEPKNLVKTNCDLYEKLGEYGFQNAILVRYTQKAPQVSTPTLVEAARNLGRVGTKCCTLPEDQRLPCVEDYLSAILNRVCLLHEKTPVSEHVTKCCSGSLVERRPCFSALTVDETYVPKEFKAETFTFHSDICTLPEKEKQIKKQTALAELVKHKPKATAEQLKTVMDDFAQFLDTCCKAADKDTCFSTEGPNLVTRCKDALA
Sequence of Rat serum albumin (RSA) (P02770 25-608): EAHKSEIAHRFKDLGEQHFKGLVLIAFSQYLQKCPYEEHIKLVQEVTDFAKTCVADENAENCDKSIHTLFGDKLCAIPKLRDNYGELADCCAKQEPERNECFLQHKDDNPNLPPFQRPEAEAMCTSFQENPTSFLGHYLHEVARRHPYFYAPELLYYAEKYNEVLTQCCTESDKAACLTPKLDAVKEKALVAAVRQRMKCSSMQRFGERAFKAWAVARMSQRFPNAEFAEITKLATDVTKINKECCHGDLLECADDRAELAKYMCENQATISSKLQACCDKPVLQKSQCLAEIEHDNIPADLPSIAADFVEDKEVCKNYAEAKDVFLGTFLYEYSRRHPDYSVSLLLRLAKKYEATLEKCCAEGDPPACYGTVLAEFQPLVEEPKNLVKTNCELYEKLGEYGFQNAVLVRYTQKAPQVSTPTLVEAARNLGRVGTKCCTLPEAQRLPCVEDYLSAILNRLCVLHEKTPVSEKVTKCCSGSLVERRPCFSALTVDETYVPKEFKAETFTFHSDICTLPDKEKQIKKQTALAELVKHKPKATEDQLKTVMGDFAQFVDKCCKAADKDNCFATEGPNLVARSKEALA

In the case of “DAT 0115: genetic fusion: exendin-4, (G4S)3 linker, 7h-14 AlbudAb, SEQ ID NO 2”, the “pEC50 Mouse GLP1R” value (GLP1R [1]) is reported as 11.06, the “decrease in percent body fat (normalized to changes in vehicle controls)” value ([2]; 15 day treatment, ED20 doses: PYY-AlbudAb 0.1 mg/kg, Exendin-4-AlbudAb 0.01 mg/kg, Combo ED20) is reported as 0.6% and the “decrease in percent body fat” value ([2]; 15 day treatment, ED80 doses: PYY-AlbudAb 1.0 mg/kg, Exendin-4-AlbudAb 0.1 mg/kg, Combo ED80) is reported as 6.8%. The “Insulin % Change from DIO Vehicle” value ([2]; ED80 Doses: Exn-Alb 0.1 mg/kg, Combo) was “↓-56%”, the “ALT % Change from DIO Vehicle” value [2, 7] was “↓-57%*” and the “AST % Change from DIO Vehicle” value [2, 7] was “↓-41%*”. For the same substance, the “Creatinine % Change from DIO Vehicle” value [2, 7] was “↓-17%*”, the “Glucose % Change from DIO Vehicle” value [2, 7] was “↓-27%*” and the “Total Bilirubin % Change from DIO Vehicle” value [2, 7] was “↑21%*”. For the same substance, the “Total Cholesterol % Change from DIO Vehicle” value [2, 7] was “↓-24%*”, the Ghrelin levels ([2]; Exendin-4-AlbudAb monotherapy groups, level approximately equal to the combination groups) was “elevated” and the “decrease in body weight relative to vehicle” value ([2]; day 7, ED80 doses: PYY-AlbudAb 1.0 mg/kg, Exendin-4-AlbudAb 0.1 mg/kg, Combo ED80 = both mixed) was 13.0%. The “inhibition of feeding / food intake” value ([2]; day 14, ED80 doses: PYY-AlbudAb 1.0 mg/kg, Exendin-4-AlbudAb 0.1 mg/kg, Combo ED80) was 0.8%, the “decrease in body weight vs. vehicle” value ([2]; day 15, ED20 doses: PYY-AlbudAb 0.1 mg/kg, Exendin-4-AlbudAb 0.01 mg/kg, Combo ED20 = both mixed, s.c. every two days) was 4.5% and the “decrease in body weight from vehicle” value ([2]; day 15, ED80 doses: PYY-AlbudAb 1.0 mg/kg, Exendin-4-AlbudAb 0.1 mg/kg, Combo ED80 = both mixed) was 16.8%. For the same substance, the “microscopic change in brown adipose tissue (histopathology)” value ([2]; day 16, Combo ED20, Exendin-4-AlbudAb 0.01 mg/kg) was “decreased cytoplasmic lipid droplets”, the “microscopic change in brown adipose tissue (histopathology)” value ([2]; day 16, Combo ED80, PYY-AlbudAb 1.0 mg/kg, Exendin-4-AlbudAb 0.1 mg/kg, Exendin-4 0.1 mg/kg) was “decreased cytoplasmic lipid droplets” and the “Amylin levels in plasma” value [2, 8] was 163 pg/mL. For the same substance, the “Leptin levels in plasma” value [2, 8] was 31.4 ng/mL, the fat mass lost ([2]; treatment period, ED20 doses: PYY-AlbudAb 0.1 mg/kg, Exendin-4-AlbudAb (dose not given), Combo ED20) was 1.4 grams and the body fat lost ([2]; treatment period, ED80 doses: PYY-AlbudAb 1.0 mg/kg, Exendin-4-AlbudAb (dose not given), Combo ED80) was 5.7 grams. For the same substance, the EC50 (GLP1R [3]; [9]) was 38 pM, the EC50 (GLP1R [3]; [10]) was 8 pM and the “inhibition of weight gain (in words)” value (db/db C57BL/6J mice; PYY-AlbudAb 1.0 mg/kg, Exendin-4-AlbudAb 0.1 mg/kg, Combo ED80) was “effective at inhibiting weight gain”. For the same substance, the “decrease in glycosylated HbAlc” value (db/db C57BL/6J mice; [11]) was “no significant changes”, the “decrease in glycosylated HbAlc” value (db/db C57BL/6J mice; ED80 doses: PYY-AlbudAb 1.0 mg/kg, Exendin-4-AlbudAb 0.1 mg/kg, Combo ED80) was 0.80% and the “decrease in body weight from vehicle” value (db/db C57BL/6J mice; day 15, ED80 doses: PYY-AlbudAb 1.0 mg/kg, Exendin-4-AlbudAb 0.1 mg/kg, Combo ED80) was 9.2%. For the same substance, the “decrease in body weight relative to vehicle control” value (db/db C57BL/6J mice; day 15, PYY-AlbudAb 0.1 mg/kg, Exendin-4-AlbudAb 0.01 mg/kg) was “no significant effect”, the plasma insulin levels (db/db C57BL/6J mice; [11]) was “trends towards increases” and the plasma insulin levels (db/db C57BL/6J mice; ED80 doses: PYY-AlbudAb 1.0 mg/kg, Exendin-4-AlbudAb (dose not given), Combo ED80) was 32036 pg/mL. The “pEC50 Human GLP1R” value (GLP1R [4]) was 11.36.
“DAT 0116: Exendin 4 DOM7h-14 fusion, SEQ ID NO 3” showed an EC50 (GLP1R [3]; [9]) of 72 pM and an EC50 (GLP1R [3]; [10]) of 12 pM.
“DAT 0117: Exendin 4, helical linker, DOM7h-14 fusion (Table 3), SEQ ID NO 4; Table 2 calls it 2xGLP-1 (7-37) A8G DOM7h-14 fusion” gave a Kd (Rat serum albumin (RSA)) of 700 nM, a Kd [5] of 130 nM and a Kd [6] of 150 nM. It also gave an EC50 (GLP1R [3]; [9]) of 15 pM and an EC50 (GLP1R [3]; [10]) of 4 pM.

From patent US20120276098A1, “DRUG FUSIONS AND CONJUGATES WITH EXTENDED HALF LIFE” (priority 2009, published 2012)
